Test results: patent US4795751A, “5-substituted-6,8-difluoroquinolines useful as antibacterial agents” (Dainippon Pharmaceutical Co., Ltd., priority 1985, dated 1989)
≈ marks a conversion by molar mass, not a printed value.

Assays:
[1] = tested on: E. coli P-51213; test: In vitro antibacterial activity, twofold agar-dilution method; type: cell-based; details: Escherichia coli, P51213; E. coli P-51213 (Gram -); Mueller-Hinton agar, 20 h, 37° C.; calculated for free base; read-out: minimum inhibitory concentration (MIC)
Protocol: (§1) The numbers in the table show minimum inhibitory concentrations (MIC) (μg/ml), calculated for free base. The minimum inhibitory concentration was determined by the twofold agar-dilution method, which was recommended by Japan Society of Chemotherapy (Chemotherapy, 29(1), 76(1981)), using Muller-Hinton agar. One loopful of an overnight culture of test organisms in Mueller-Hinton broth was inoculated onto 10-ml drug-containing agar layers in petri dishes. Bacterial inocula contained approximately 10^6 colonyl-formingunits. Bacterial growth was observed after 20-hour incubation at 37° C. The MIC was defined as the lowest drug concentration which prevented visible bacterial growth.

[2] = tested on: S. epidermidis No. 8; test: as above; type: cell-based; details: Staphylococcus epidermidis; S. epidermidis No. 8 (Gram +); Mueller-Hinton agar, 20 h, 37° C.; calculated for free base; read-out: minimum inhibitory concentration (MIC)
Protocol: as §1

[3] = tested on: S. aureus No. 50774; test: as above; type: cell-based; details: Staphylococcus aureus; S. aureus No. 50774 (Gram +); Mueller-Hinton agar, 20 h, 37° C.; calculated for free base; read-out: minimum inhibitory concentration (MIC)
Protocol: as §1

[4] = tested on: S. aureus No. 80; test: as above; type: cell-based; details: Staphylococcus aureus; S. aureus No. 80 (Gram +); Mueller-Hinton agar, 20 h, 37° C.; calculated for free base; read-out: minimum inhibitory concentration (MIC)
Protocol: as §1

[5] = tested on: P. aeruginosa No. 12; test: as above; type: cell-based; details: Pseudomonas aeruginosa; P. aeruginosa No. 12 (Gram -); Mueller-Hinton agar, 20 h, 37° C.; calculated for free base; read-out: minimum inhibitory concentration (MIC)
Protocol: as §1

[6] = tested on: S. aureus 209P JC-1; test: as above; type: cell-based; details: Staphylococcus aureus; S. aureus 209P JC-1 (Gram +); Mueller-Hinton agar, 20 h, 37° C.; calculated for free base; read-out: minimum inhibitory concentration (MIC)
Protocol: as §1

[7] = tested on: B. subtilis PCI 219; test: as above; type: cell-based; details: Bacillus subtilis, PCI219; B. subtilis PCI 219 (Gram +); Mueller-Hinton agar, 20 h, 37° C.; calculated for free base; read-out: minimum inhibitory concentration (MIC)
Protocol: as §1

[8] = tested on: Al. faecalis P-7001; test: as above; type: cell-based; details: Alcaligenes faecalis, P7001; Al. faecalis P-7001 (Gram -); Mueller-Hinton agar, 20 h, 37° C.; calculated for free base; read-out: minimum inhibitory concentration (MIC)
Protocol: as §1

[9] = tested on: Ac. calcoaceticus P-6901; test: as above; type: cell-based; details: Acinetobacter calcoaceticus, P6901; Ac. calcoaceticus P-6901 (Gram -); Mueller-Hinton agar, 20 h, 37° C.; calculated for free base; read-out: minimum inhibitory concentration (MIC)
Protocol: as §1

[10] = tested on: Pseudomonas aeruginosa 12; test: In vivo efficacy against systemic infections in mice; parameters: species or system Pseudomonas aeruginosa; male mice (ddY-S); details: Pseudomonas aeruginosa, 12, 168 h, oral, intraperitoneal infection about 5×10^3 cells, 4% mucin, twice, immediately and 6 h after infection, 7 days, calculated for free base, read-out: median effective dose (ED50)
Protocol: Compounds were each dissolved in deionized water. Each of the solutions was orally administered to mice infected with each of the test organisms under the conditions shown hereinbelow, and the median effective dose (ED50) was calculated by probit analysis. The numerals in the table show ED50 (mg/kg) value, calculated for free base.
Mice: Male mice (ddY-S) weighing about 20 g
Pseudomonas aeruginosa 12
Intraperitoneal infection with about 5×10^3 cells per mouse suspended in tryptosoy broth with 4% mucin.
Four times, immediately, 6, 24 and 30 hours after infection in case of Streptococcus pneumoniae 1 Neufeld. Twice, immediately and 6 hours after infection in case of other organisms.
For 14 days in case of Staphylococcus aureus 50774 and Streptocuccus pneumoniae 1 Neufeld. For 7 days in case of other organisms.

[11] = Acute oral toxicity in mice; details: mouse, in vivo, po
Protocol: (§2) A solution containing each of compounds 1, 2 and 3 of this invention in various concentrations was orally given to male mice (ddY) at a dose of 0.1 ml per 10 g of body weight. The number of dead mice was counted after 7 days, and the value of median lethal dose (LD50, mg/kg) was calculated in accordance with the Behrens-Kaerber method.

[12] = tested on: male mice (ddY); test: Acute oral toxicity in mice; details: conclusion in words from Table 5
Protocol: as §2

[13] = tested on: Campylobacter jejuni 77; test: Antibacterial activity against Campylobacter jejuni, twofold agar-dilution method; type: cell-based; details: strain 77, blood-containing Mueller-Hinton agar, 48 h, 37° C. microaerobically, calculated for free base, read-out: minimum inhibitory concentration (MIC)
Protocol: (§3) The numbers in the table show minimum inhibitory concentrations (MIC) (μg/ml), calculated for free base. The minimum inhibitory concentration was determined by the twofold agar-dilution method using blood-containing Mueller-Hinton agar. One loopful of a culture of test organisms in Mueller-Hinton broth was inoculated onto 10-ml drug-containing agar layer in petri dishes. Bacterial growth was observed after 48-hour incubation at 37° C. microaerobically. The MIC was defined as the lowest drug concentration which prevented visible bacterial growth.

[14] = tested on: Campylobacter jejuni 170; test: as above; type: cell-based; details: strain 170, blood-containing Mueller-Hinton agar, 48 h, 37° C. microaerobically, calculated for free base, read-out: minimum inhibitory concentration (MIC)
Protocol: as §3

[15] = tested on: Campylobacter jejuni 19807; test: as above; type: cell-based; details: strain 19807, blood-containing Mueller-Hinton agar, 48 h, 37° C. microaerobically, calculated for free base, read-out: minimum inhibitory concentration (MIC)
Protocol: as §3

[16] = tested on: Campylobacter jejuni 19805; test: as above; type: cell-based; details: strain 19805, blood-containing Mueller-Hinton agar, 48 h, 37° C. microaerobically, calculated for free base, read-out: minimum inhibitory concentration (MIC)
Protocol: as §3

[17] = tested on: Campylobacter jejuni 19804; test: as above; type: cell-based; details: strain 19804, blood-containing Mueller-Hinton agar, 48 h, 37° C. microaerobically, calculated for free base, read-out: minimum inhibitory concentration (MIC)
Protocol: as §3

[18] = tested on: Campylobacter jejuni A-11-3; test: as above; type: cell-based; details: A113, strain A-11-3, blood-containing Mueller-Hinton agar, 48 h, 37° C. microaerobically, calculated for free base, read-out: minimum inhibitory concentration (MIC)
Protocol: as §3

Compound `CC1CN(c2c(F)c(N)c3c(=O)c(C(=O)O)cn(C4CC4)c3c2F)CCN1` (stereo not drawn) [Compound 1, 5-Amino-1-cyclopropyl-6,8-difluoro-7-(3-methyl-1-piperazinyl)-1,4-dihydro-4-oxoquinoline-3-carboxylic acid] has an MIC [1] of 0.025 µg/mL (≈ 0.0661 µM), an MIC [2] of 0.025 µg/mL (≈ 0.0661 µM) and an MIC [3] of 0.0125 µg/mL (≈ 0.033 µM). For the same compound, the MIC [4] was 0.0125 µg/mL (≈ 0.033 µM), the MIC [5] was 0.1 µg/mL (≈ 0.264 µM) and the MIC [6] was 0.025 µg/mL (≈ 0.0661 µM). For the same compound, the MIC [7] was 0.05 µg/mL (≈ 0.132 µM), the MIC [8] was 0.1 µg/mL (≈ 0.264 µM) and the MIC [9] was 0.0125 µg/mL (≈ 0.033 µM). The ED50 [10] was 1.11 mg/kg, the LD50 at 168 h [11] was greater than 2000 mg/kg and the oral toxicity [12] was “low oral toxicity”. The MIC [13] was 0.0125 µg/mL (≈ 0.033 µM), the MIC [14] was 0.0125 µg/mL (≈ 0.033 µM) and the MIC [15] was 0.0125 µg/mL (≈ 0.033 µM). The MIC [16] was 0.0125 µg/mL (≈ 0.033 µM), the MIC [17] was 0.0125 µg/mL (≈ 0.033 µM) and the MIC [18] was 0.05 µg/mL (≈ 0.132 µM).
